Data reported in PubChem BioAssay (NCI).
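Where inhibition never reached the appropriate level, the endpoint shown equals the highest concentration tested. Otherwise, values were interpolated linearly from a five-concentration, 48-hour dose response in 96-well plates. At the GI50, growth is halved. The concentration for full growth arrest is given as TGI.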

Experiments:
Test in all cases: growth of human tumour cells (NCI), 48 h
K-562 leukemia = system: K-562 leukemia
RPMI-8226 leukemia = system: RPMI-8226 leukemia
COLO 205 colon = system: COLO 205 colon
UO-31 renal = system: UO-31 renal
HS 578T breast = system: HS 578T breast
HCC-2998 colon = system: HCC-2998 colon
SF-295 CNS = system: SF-295 CNS
NCI-H23 lung = system: NCI-H23 lung
NCI-H460 lung = system: NCI-H460 lung
SN12C renal = system: SN12C renal

Row | SMILES | GI50 (K-562 leukemia) [µM] | TGI (K-562 leukemia) [µM] | GI50 (RPMI-8226 leukemia) [µM] | TGI (RPMI-8226 leukemia) [µM] | GI50 (COLO 205 colon) [µM] | TGI (COLO 205 colon) [µM] | GI50 (UO-31 renal) [µM] | TGI (UO-31 renal) [µM] | GI50 (HS 578T breast) [µM] | TGI (HS 578T breast) [µM] | GI50 (HCC-2998 colon) [µM] | TGI (HCC-2998 colon) [µM] | GI50 (SF-295 CNS) [µM] | TGI (SF-295 CNS) [µM] | GI50 (NCI-H23 lung) [µM] | TGI (NCI-H23 lung) [µM] | GI50 (NCI-H460 lung) [µM] | TGI (NCI-H460 lung) [µM] | GI50 (SN12C renal) [µM] | TGI (SN12C renal) [µM]
1 | COc1ccc(-c2nccn2-c2cc(OC)c(OC)c(OC)c2)cc1 | 1.5 | > 100 | 8.06 | > 93.2 | 0.598 | 7.29 | 9.38 | > 93 | 8.9 | > 77.6 | 1.09 | 39.9 | 1.78 | > 68.1 | 9.09 | > 100 | 1.6 | > 100 | 9.81 | > 100
2 | COc1ccc(C2CC(c3ccc(OC)c(OC)c3)=NN2C(=O)c2cc(OC)c(OC)c(OC)c2)cc1 (configuration not stated) | 1.2 | > 100 | 4.27 | > 100 | 2.81 | > 28 | 0.864 | > 100 | 2.07 | > 100 | 1.85 | 4.77 | 0.426 |  | 3.46 | > 100 | 3.54 | > 100 | 5.71 | > 100
3 | O=C(CN1C(=O)c2ccccc2C1=O)NC1(C(=O)O)CCCC1 |  | > 100 |  | > 100 |  | > 100 |  | > 100 |  | > 100 |  | > 100 |  | > 100 |  | > 100 |  |  |  | > 100
4 | C[As](C)SCC(COC(=O)c1ccccc1)OC(=O)c1ccccc1 (configuration not stated) | < 0.0205 | 1.22 | 0.0264 | 0.357 | 0.0514 | 1.88 | 0.763 | 8.06 | 0.627 | 4.45 | 0.104 | 0.232 |  | 1.35 | 0.05 | 0.125 | 2.21 | 12.1 | 0.23 | 1.23
5 | COc1cc2c(c(OC)c1OC)-c1c(c3ccc([N+](=O)[O-])cc3c(=O)n1CCCN=[N+]=[N-])C2=O | > 100 | > 100 | > 100 | > 100 | > 100 | > 100 | 4.92 | 72.5 | 12.2 | > 100 | > 100 | > 100 | 18.5 | > 100 | 15.2 | 43.6 | 12.3 | > 100 | 30.4 | > 100
6 | CCCCc1ccc(C(N)=O)nc1 | > 100 | > 100 | > 100 | > 100 | > 100 | > 100 | > 100 | > 100 | 20 | > 100 | > 100 | > 100 | > 100 | > 100 | > 100 | > 100 | > 100 | > 100 | > 100 | > 100
7 | O=C1/C(=C/c2ccc([N+](=O)[O-])s2)Oc2ccc(Cl)cc21 | 0.133 | 0.909 | 0.298 | 0.97 | 0.527 | 1.36 | 0.152 | 0.295 | 0.372 | > 100 | 0.515 | 1.33 | 0.999 | 2.98 | 0.592 | 1.82 | 0.675 | 2.18 | 0.593 | 1.79
8 | Cn1c(N)cc(=O)nc1N |  | > 100 |  | > 100 |  | > 100 |  | > 100 |  | > 100 |  | > 100 |  | > 100 |  | > 100 |  | > 100 |  | > 100
9 | N#CC1=C(N)Oc2c(ccc3ccccc23)C1c1ccccc1Cl (configuration not stated) | 0.0796 | > 43.5 | 0.348 | 8.86 | 0.362 | 12.9 | 0.282 | 24.8 | 0.226 | 2.94 | 0.429 | 11.6 | 0.233 | 11.3 | 0.474 | 17.3 | 0.335 | 1.34 | 0.722 | 13.9
10 | CN(C)CCCn1c2c(c3ccc([N+](=O)[O-])cc3c1=O)C(=O)c1ccccc1-2 | 6.05 | > 100 | 3.46 | 19.3 | 23.9 | 87.5 | 4.28 | 47.8 | 41.3 | > 100 | 15.3 | 41.7 | 8.63 | > 100 | 4.95 | 24.2 | 2.69 | 19.4 | 4.21 | 24.5
11 | COc1ccc(/C(C)=C(\c2ccc(Cl)cc2)c2ccc(OCCN3CCCCC3)cc2)cc1F | 0.698 | 5.93 | 3.49 | 8.49 | 1.75 | 5.25 | 2.05 | 4.21 | 2.83 | 6.78 | 3.21 | 7.14 | 2.75 | 5.52 | 2.78 | 7.09 | 2.59 | 5.38 | 2.75 | 7.24
12 | O=C1C2=C(Nc3cc([N+](=O)[O-])ccc3N2)OC1c1c[nH]c2ccc(COc3ccccc3)cc12 (configuration not stated) |  | > 100 |  | > 100 |  | 55.8 |  | > 100 |  | > 100 |  | > 100 |  | > 100 |  | > 100 |  | > 100 |  | > 100
13 | CCN(CC)CCC(CNc1c2ccc(Cl)cc2nc2ccc(OC)cc12)c1ccccc1 (configuration not stated) | 0.337 | 1.28 | 1.33 | 3.85 | 1.09 | 2.28 | 1.3 | 3.27 | 1.95 | 5.44 | 1.09 | 2.39 | 1.41 | 3.02 | 1.5 | 3.55 | 0.768 | 3.99 | 1.15 | 4.98
